What was measured:
[1] = target: T1, Carbonic anhydrase 1 (Homo sapiens, UniProt P00915); experiment: Esterase Activity Assay; details: pH 7.4
Method: (§1) The enzymatic reaction, in a total volume of 3 mL, contained 1.4 mL of 0.05 M tris-SO4 buffer (pH 7.4), 1 mL of 3 mM 4-nitrophenylacetate, 0.5 mL H2O and 0.1 mL enzyme solution. A reference measurement was obtained by preparing the same cuvette without any enzyme solution.

[2] = target: T2, Carbonic anhydrase 2 (Homo sapiens, UniProt P00918); experiment: Esterase Activity Assay; details: pH 7.4
Method: as §1

[3] = target: T1, Carbonic anhydrase 1; experiment: Enzyme Activity Assay
[4] = target: T2, Carbonic anhydrase 2; experiment: Enzyme Activity Assay
[5] = target: T1, Carbonic anhydrase 1; experiment: Hydratase Activity Assay
[6] = target: T2, Carbonic anhydrase 2; experiment: Hydratase Activity Assay

T1 sequence (P00915 whole entry): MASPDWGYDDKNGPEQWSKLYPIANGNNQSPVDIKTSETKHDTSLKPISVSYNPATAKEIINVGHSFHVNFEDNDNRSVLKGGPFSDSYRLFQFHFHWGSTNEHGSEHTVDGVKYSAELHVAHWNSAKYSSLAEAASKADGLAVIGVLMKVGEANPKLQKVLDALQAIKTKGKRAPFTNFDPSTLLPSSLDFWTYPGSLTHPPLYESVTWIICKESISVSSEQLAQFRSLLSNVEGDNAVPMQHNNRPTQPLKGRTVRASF

| Structure (SMILES) | IC50 [1] [nM] | IC50 [2] [nM] | Ki [3] [nM] | Ki [4] [nM] | IC50 [5] [nM] | IC50 [6] [nM] |
| --- | --- | --- | --- | --- | --- | --- |
| CC(=O)Cn1c(C)cc2cc(-n3nc(C(=O)Nc4nnc(S(N)(=O)=O)s4)c(C(=O)c4ccccc4)c3-c3ccccc3)ccc21 [4-Benzoyl-1-(2-methyl-1-(2-oxopropyl)-1H-indol-5-yl)-5-phenyl-N-(5-sulphamoyl-1,3,4-thiadiazol-2-yl)-1H-pyrazole-3-carboxamide (18)] | 2400 | 1740 | 6670 | 3920 | 750 | 600 |
| CC(=O)/C(=N\Nc1ccc(-n2nc(C(=O)Nc3nnc(S(N)(=O)=O)s3)c(C(=O)c3ccccc3)c2-c2ccccc2)cc1)C(=O)c1ccccc1 [4-Benzoyl-1-(4-(2-(1,3-dioxo-1-phenylbutan-2-ylidene)hydrazinyl)phenyl)-5-phenyl-N-(5-sulphamoyl-1,3,4-thiadiazol-2-yl)-1H-pyrazole-3-carboxamide (12)] | 1000 | 370 | 1530 | 244 | 164 | 160 |
| CC(=O)C(=NNc1ccc(-n2nc(C(=O)Nc3nnc(S(N)(=O)=O)s3)c(C(=O)c3ccccc3)c2-c2ccccc2)cc1)C(C)=O [4-Benzoyl-1-(4-(2-(2,4-dioxopentan-3-ylidene)hydrazinyl)phenyl)-5-phenyl-N-(5-sulphamoyl-1,3,4-thiadiazol-2-yl)-1H-pyrazole-3-carboxamide (11)] | 570 | 130 | 572 | 103 | 330 | 80 |
| NS(=O)(=O)c1nnc(NC(=O)c2nn(-c3ccc(/N=N/c4c(O)ccc5ccccc45)cc3)c(-c3ccccc3)c2C(=O)c2ccccc2)s1 [4-Benzoyl-1-(4-((2-hydroxynaphthalen-1-yl)diazenyl)phenyl)-5-phenyl-N-(5-sulphamoyl-1,3,4-thiadiazol-2-yl)-1H-pyrazole-3-carboxamide (8)] | 4750 | 2100 | 5830 | 848 | 2860 | 2400 |
| CCOC(=O)/C(=N/Nc1ccc(-n2nc(C(=O)Nc3nnc(S(N)(=O)=O)s3)c(C(=O)c3ccccc3)c2-c2ccccc2)cc1)C(C)=O [Ethyl 2-(2-(4-(4-benzoyl-5-phenyl-3-(5-sulphamoyl-1,3,4-thiadiazol-2-ylcarbamoyl)-1H-pyrazol-1-yl)phenyl)hydrazono)-3-oxobutanoate (15)] | 910 | 140 | 1190 | 125 | 1210 | 800 |

Continued, values first:

| IC50 [1] [nM] | IC50 [2] [nM] | Ki [3] [nM] | Ki [4] [nM] | IC50 [5] [nM] | IC50 [6] [nM] | Structure (SMILES) |
| --- | --- | --- | --- | --- | --- | --- |
| 4800 | 1420 | 1020 | 3180 | 700 | 1000 | NS(=O)(=O)c1nnc(NC(=O)c2nn(-c3ccc(NN=C(C(=O)c4ccccc4)C(=O)c4ccccc4)cc3)c(-c3ccccc3)c2C(=O)c2ccccc2)s1 [4-Benzoyl-1-(4-(2-(1,3-dioxo-1,3-diphenylpropan-2-ylidene)hydrazinyl)phenyl)-5-phenyl-N-(5-sulphamoyl-1,3,4-thiadiazol-2-yl)-1H-pyrazole-3-carboxamide (13)] |
| 230 | 30 | 95 | 18 | 200 | 800 | NS(=O)(=O)c1nnc(NC(=O)c2nn(-c3ccc(/N=N/c4ccc(O)cc4)cc3)c(-c3ccccc3)c2C(=O)c2ccccc2)s1 [4-Benzoyl-1-(4-((4-hydroxyphenyl)diazenyl)phenyl)-5-phenyl-N-(5-sulphamoyl-1,3,4-thiadiazol-2-yl)-1H-pyrazole-3-carboxamide (9)] |
| 350 | 50 | 360 | 56 | 270 | 180 | NS(=O)(=O)c1nnc(NC(=O)c2nn(-c3ccc(I)cc3)c(-c3ccccc3)c2C(=O)c2ccccc2)s1 [4-Benzoyl-1-(4-iodophenyl)-5-phenyl-N-(5-sulphamoyl-1,3,4-thiadiazol-2-yl)-1H-pyrazole-3-carboxamide (10)] |
| 380 | 70 | 300 | 65 | 850 | 1000 | CCOC(=O)C(=NNc1ccc(-n2nc(C(=O)Nc3nnc(S(N)(=O)=O)s3)c(C(=O)c3ccccc3)c2-c2ccccc2)cc1)C(=O)OCC [Diethyl 2-(2-(4-(4-benzoyl-5-phenyl-3-(5-sulphamoyl-1,3,4-thiadiazol-2-ylcarbamoyl)-1H-pyrazol-1-yl)phenyl)hydrazono)malonate (16)] |
| 800 | 850 | 1530 | 498 | 1320 | 1300 | CCOC(=O)/C(=N/Nc1ccc(-n2nc(C(=O)Nc3nnc(S(N)(=O)=O)s3)c(C(=O)c3ccccc3)c2-c2ccccc2)cc1)C(=O)c1ccccc1 [Ethyl 2-(2-(4-(4-benzoyl-5-phenyl-3-(5-sulphamoyl-1,3,4-thiadiazol-2-ylcarbamoyl)-1H-pyrazol-1-yl)phenyl)hydrazono)-3-oxo-3-phenylpropanoate (14)] |
| 330 | 80 | 310 | 108 | 780 | 200 | CC(=O)/C(=N\Nc1ccc(-n2nc(C(=O)Nc3nnc(S(N)(=O)=O)s3)c(C(=O)c3ccccc3)c2-c2ccccc2)cc1)C(=O)OC(C)(C)C [tert-Butyl 2-(2-(4-(4-benzoyl-5-phenyl-3-(5-sulphamoyl-1,3,4-thiadiazol-2-ylcarbamoyl)-1H-pyrazol-1-yl)phenyl)hydrazono)-3-oxobutanoate (17)] |

— BindingDB's records for doi:10.3109/14756366.2010.491795 (Dumlupinar University, 2011)
